# Measured values as given in patent US6034230A, “Nucleic acids encoding myocardial peptides” (priority 1999, dated 2000).
# Tested on: Balb/c mice
# Assay: Oligodeoxynucleotides as immunostimulators: immunization with M7A-alpha peptide plus oligodeoxynucleotide, inflammatory heart disease at day 21
# Assay type: in vivo
# Details: for Severity of inflammatory heart disease (score) / Prevalence of inflammatory heart disease: Table 2, day 21; for Severity of inflammatory heart disease (score): about 10 nmol oligodeoxynucleotide + about 50 micrograms M7A-alpha, score scale of Example 1; for Immunostimulatory / adjuvant activity: with M7A-alpha peptide, in the absence of Freund's complete adjuvant
# [1] = about 10 nmol oligodeoxynucleotide as adjuvant + about 50 micrograms M7A-alpha, Freund's incomplete adjuvant, days 0 and 7
sequence,measurement,setting,value
"GTACTGACGTTTACTCTTGG (chemistry not given here) [CpG, oligonucleotide from DNA encoding 60 kDa cysteine rich outer membrane protein of Chlamydia trachomatis, containing a CpG motif]",Severity of inflammatory heart disease (score),Freund's incomplete adjuvant,1.2 ± 0.4
same,Prevalence of inflammatory heart disease,[1],5/5
same,Prevalence of inflammatory heart disease,negative control: about 10 nmol oligodeoxynucleotide without peptide,0/5
same,Immunostimulatory / adjuvant activity,,potent immunostimulator
"GTACTGAGCTTTACTCTTGG (chemistry not given here) [non-CpG, counterpart of the CpG oligo not containing the CpG motif, reference compound]",Severity of inflammatory heart disease (score),Freund's incomplete adjuvant,1.0 ± 0.0
same,Prevalence of inflammatory heart disease,[1],1/5
same,Immunostimulatory / adjuvant activity,,hardly effective as an adjuvant
